Assays:
Format in all cases: in vivo
[1] = test system: Phosphoenolpyruvate carboxykinase (PEP CK); test: Real-time PCR gene expression in peripheral tissues: PepCK; conditions: liver; C57bl6j mice, high fat diet, 100 mg/kg/body weight in diet, 5 weeks
Description: (§1) The expression of 45 genes was measured by real-time PCR in peripheral tissues to identify genes that were differentially expressed in response to oral administration of oleoylethanolamide (OEA) or a non-hydrolysable OEA analog (KDS 5104), which affect satiety, lipid metabolism, fat utilization, food intake, and body fat mass.
(§2) Animals, diet, and experimental design. Adult male C57bl6j mice purchased at 8 weeks of age were individually housed and maintained ad libitum on high fat diet and water for 2 weeks. Seven mice were randomly allocated in 3 groups and fed with a high fat diet (lipids represented 50% of daily energy) for 2 weeks. […]
(§3) RNA extraction and gene expression. […] The RNA concentration was determined on nanodrop from the absorbance at 260 nm. […] Real-time quantitative PCR (RT-qPCR) were performed on cDNA obtained as described above using a high through put system (Biomek 3000, Beckman & Coulter, Fullerton, USA) and a Lightcycler 480 (Roche/Hitachi, Basel, Switzerland) with SYBR Green Master mix+kit (Eurogentec, Philadelphia, USA). […] Values were expressed as ratio of RNA levels relative to control mice (diets with 0 mg of OEA/kg/body weight) using ΔΔ(Ct) (Livak K J & Schmittgen T D, 2001, Methods 25:402-8). Gene expression of the following genes was measured (abbreviation and GenBank Accession shown in parentheses). […]

[2] = test system: CPT1; test: Real-time PCR gene expression in peripheral tissues: CPT1; conditions: C57bl6j mice, high fat diet, 100 mg/kg/body weight in diet, 5 weeks
Description: as §1
(§4) Animals, diet, and experimental design. Adult male C57bl6j mice purchased at 8 weeks of age were individually housed and maintained ad libitum on high fat diet and water for 2 weeks. Seven mice were randomly allocated in 3 groups and fed with a high fat diet (lipids represented 50% of daily energy) for 2 weeks. For one kilogram, the composition of the high fat diet was: 235 g casein, 201 g saccharose, 3.5 g L-cystine, 85 g starch, 116 g maltodextrin, 60 g cellulose, 12 g vitamins mix (AIN-93M, UPAE, Jouy-en-Josas, France), 51.5 g mineral mix (AIN-93Vx, UPAE, Jouy-en-Josas, France), and 236 g lard. Then, either OEA or KDS 5104 was added to the diet at a concentration of 100 mg/kg/body weight. The mice were kept under treatment for 5 weeks.
(§5) Sampling. At the end of the experimental period, mice were sacrificed by blood drawing (cardiac puncture) after anesthesia with isoflurane. Plasma was obtained by centrifugation (1,000 g for 10 min at 4° C.). Mesenteric, epididymal, inguinal and peritoneal adipose depots, as well as liver, stomach, small intestine mucosa, pancreas, and gastrocnemian muscle were removed and frozen into liquid nitrogen. Plasma, urine, feces, and organ samples were kept at −80° C. until analysis.
(§6) RNA extraction and gene expression. Total RNA from liver, intestine mucous membrane, adipose tissues, gastrocnemian muscle, pancreas and stomach were extracted with TRIzol reagent (Invitrogen, Carlsbad, USA) according to the manufacturer's instruction. The RNA concentration was determined on nanodrop from the absorbance at 260 nm. Retro-transcription PCRs to synthesize cDNA were performed using an Applied Biosystem Thermal Cycler 2720 and Superscript II (Invitrogen, Carlsbad, USA) according to manufacturer's protocol. Real-time quantitative PCR (RT-qPCR) were performed on cDNA obtained as described above using a high through put system (Biomek 3000, Beckman & Coulter, Fullerton, USA) and a Lightcycler 480 (Roche/Hitachi, Basel, Switzerland) with SYBR Green Master mix+kit (Eurogentec, Philadelphia, USA). Primers for the selected genes were generated using online informatics assistance from the Lightcycler manufacturer (Roche). Databases used to identify the genes were (1) the NCBI database (GenBank) and (2) the IHOP (Information Hyperlinked over Protein) database (www.ihop-net.org/UniPub/iHOP/bng/). Values were expressed as ratio of RNA levels relative to control mice (diets with 0 mg of OEA/kg/body weight) using ΔΔ(Ct) (Livak K J & Schmittgen T D, 2001, Methods 25:402-8). Gene expression of the following genes was measured (abbreviation and GenBank Accession shown in parentheses).
(§7) Statistical analysis. […] Statistical analysis of physiological parameters and gene expression data was performed by one-way ANOVA on Statview software (SAS Institute, Cary, USA). Daily food intake was analyzed using two-way ANOVA on Statview software. Statistical significance was set up at the P<0.05 level, the P<0.01 level and the P<0.001 level. For statistical analysis of the gene expression data, values were calculated relative to 18S expression for each mouse and gene.

[3] = test system: Peroxisome proliferator activated receptor alpha (PPAR α); test: Real-time PCR gene expression in peripheral tissues: PPAR α; conditions: proximal intestine; C57bl6j mice, high fat diet, 100 mg/kg/body weight in diet, 5 weeks
Description: as §1, §2, §3

[4] = test system: N-acylsphingosine amidohydrolase-like (NAAA); test: Real-time PCR gene expression in peripheral tissues: NAAA; conditions: C57bl6j mice, high fat diet, 100 mg/kg/body weight in diet, 5 weeks
Description: as §1, §4, §5, §6, §7

[5] = test system: Fatty acid amide hydrolase (FAAH); test: Real-time PCR gene expression in peripheral tissues: FAAH; conditions: C57bl6j mice, high fat diet, 100 mg/kg/body weight in diet, 5 weeks
Description: as §1, §4, §5, §6, §7

[6] = Chronic oral OEA in high fat diet: plasma triglycerides and cholesterol; conditions: C3H mice, 4 weeks; for Plasma triglycerides, change: P<0.05
Text: The physiological and biochemical effects of chronic oral OEA administration were investigated. Mice were chronically fed with OEA, provided as a supplement during 4 weeks, to study the effect on body weight gain and cumulative food intake, among other parameters.
Animals, diet and experimental design. Adult male C3H mice purchased at 8 weeks of age were individually housed and maintained ad libitum on different diets and water for 2 weeks. Seven mice were allocated in 3 groups by randomization by weight, and fed with a high fat diet (lipids represented 50% of daily energy) during 2 weeks. The composition of the high fat diet per kg was: 284.5 g of corn starch, 89.5 g of saccharose, 250 g of casein, 50 g of cellulose, 10 g of a mix of vitamins (V1001), 35 g of a mix of minerals (S10026) and 281 g of canola oil (UPAE, Jouy en Josas, France). Then, OEA was added to the diets at different levels to provide 0, 10, or 100 mg OEA/kg body weight. The mice were kept on each respective diet for 4 weeks. During the nutritional intervention, daily food intake was monitored and the mice were weighed 3 times a week.
Sampling. At the end of the experimental period, mice were sacrificed by blood drawing after anesthesia with isoflurane. Plasma was obtained by centrifugation (1,000 g for 10 min at 4° C.). Mesenteric, epididymal, inguinal and peritoneal adipose depots, as well as liver, stomach, small intestine mucosa and gastrocnemian muscle were excised and frozen into liquid nitrogen. Plasma and organ samples were kept at −80° C. until analysis. Triglycerides, glucose, total cholesterol and HDL cholesterol were directly measured on plasma samples collected during the sacrifice by enzymatic procedures, using a Beckman Coulter Systems SYNCHRON LX 20 (Beckman Coulter, Fullerton, USA) (oxidase method, Beckman Coulter for glucose, GPO method, Beckman Coulter for TG, oxidase and esterase method, Beckman Coulter for cholesterol). HDL were isolated by specific solubilization, using a precipitation isolation kit (Beckman Coulter, Fullerton, USA).
Statistical analysis. Results were determined as mean±standard error of the mean (SEM). Statistical analysis of physiological parameters was performed by one-way ANOVA on Statview software (SAS institute, Cary, USA). Statistical significance was set up at the P<0.05 level.

[7] = test system: Visfatin; test: Real-time PCR gene expression in peripheral tissues: visfatin; conditions: C57bl6j mice, high fat diet, 100 mg/kg/body weight in diet, 5 weeks
Description: as §1, §4, §5
RNA extraction and gene expression. Total RNA from liver, intestine mucous membrane, adipose tissues, gastrocnemian muscle, pancreas and stomach were extracted with TRIzol reagent (Invitrogen, Carlsbad, USA) according to the manufacturer's instruction. The RNA concentration was determined on nanodrop from the absorbance at 260 nm. […] Real-time quantitative PCR (RT-qPCR) were performed on cDNA obtained as described above using a high through put system (Biomek 3000, Beckman & Coulter, Fullerton, USA) and a Lightcycler 480 (Roche/Hitachi, Basel, Switzerland) with SYBR Green Master mix+kit (Eurogentec, Philadelphia, USA). […] Values were expressed as ratio of RNA levels relative to control mice (diets with 0 mg of OEA/kg/body weight) using ΔΔ(Ct) (Livak K J & Schmittgen T D, 2001, Methods 25:402-8). Gene expression of the following genes was measured (abbreviation and GenBank Accession shown in parentheses).
Statistical analysis. […] Daily food intake was analyzed using two-way ANOVA on Statview software. […] For statistical analysis of the gene expression data, values were calculated relative to 18S expression for each mouse and gene.

[8] = test system: G protein coupled receptor 119 (GPR 119); test: Real-time PCR gene expression in peripheral tissues: GPR119; conditions: proximal intestine; C57bl6j mice, high fat diet, 100 mg/kg/body weight in diet, 5 weeks
Description: as §1, §2, §3

CCCCCCCC/C=C\CCCCCCCC(=O)NCCO [OEA, N-oleoyl-ethanolamide]
PepCK l, ratio of RNA levels relative to control mice [1]: 1.02 | CPT1 l, ratio of RNA levels relative to control mice ([2]; liver): 1.74 | CPT1 p, ratio of RNA levels relative to control mice ([2]; pancreas): 1.35 | CPT1 i, ratio of RNA levels relative to control mice ([2]; proximal intestine): 2.00 | PPAR α i, ratio of RNA levels relative to control mice [3]: 1.20 | NAAA at ep, ratio of RNA levels relative to control mice ([4]; epidydimal adipose tissue): 1.36 | NAAA at per, ratio of RNA levels relative to control mice ([4]; peritoneal adipose tissue): 1.03 | NAAA i, ratio of RNA levels relative to control mice ([4]; proximal intestine): 1.85 | FAAH at ep, ratio of RNA levels relative to control mice ([5]; epidydimal adipose tissue): 2.22 | FAAH at per, ratio of RNA levels relative to control mice ([5]; peritoneal adipose tissue): 1.62 | FAAH i, ratio of RNA levels relative to control mice ([5]; proximal intestine): 1.68 | Plasma triglycerides, change ([6]; 10 mg dose): −72% | plasma total cholesterol ([6]; 10 mg/kg): trend to decreased | Plasma triglycerides, change ([6]; 100 mg dose): −59% | plasma total cholesterol (decrease) ([6]; 100 mg/kg body weight): reached statistical significance | visfatin at ep, ratio of RNA levels relative to control mice ([7]; epidydimal adipose tissue): −1.55 | visfatin at per, ratio of RNA levels relative to control mice ([7]; peritoneal adipose tissue): −1.80 | GPR119 i, ratio of RNA levels relative to control mice [8]: 1.97

Source: US8742082B2, “Compositions and methods for influencing satiety, lipid metabolism, and fat utilization” (Nestec S.A., priority 2008, dated 2014)
